This note sets out measurements from patent US20240190838A1, “LZK-TARGETING DEGRADERS AND METHODS OF USE” (The U.S.A., as represented by the Secretary, Department of …, priority 2020, published 2024).

The solubility is the dissolved amount per volume that the medium holds.

Data set [1] is described as follows: Parallel artificial membrane permeability assay (PAMPA). In kind it is in vitro ADME. The settings on record: for Ratio of mean permeability (×10^4 cm/s) related to low permeability control (atenolol): Table 7. (In general: The PAMPA barrier holds no transporters, so it reflects passive diffusion.)
Data set [2] deals with T1, LZK (Homo sapiens, UniProt O43283).
T1 sequence (O43283 1-966): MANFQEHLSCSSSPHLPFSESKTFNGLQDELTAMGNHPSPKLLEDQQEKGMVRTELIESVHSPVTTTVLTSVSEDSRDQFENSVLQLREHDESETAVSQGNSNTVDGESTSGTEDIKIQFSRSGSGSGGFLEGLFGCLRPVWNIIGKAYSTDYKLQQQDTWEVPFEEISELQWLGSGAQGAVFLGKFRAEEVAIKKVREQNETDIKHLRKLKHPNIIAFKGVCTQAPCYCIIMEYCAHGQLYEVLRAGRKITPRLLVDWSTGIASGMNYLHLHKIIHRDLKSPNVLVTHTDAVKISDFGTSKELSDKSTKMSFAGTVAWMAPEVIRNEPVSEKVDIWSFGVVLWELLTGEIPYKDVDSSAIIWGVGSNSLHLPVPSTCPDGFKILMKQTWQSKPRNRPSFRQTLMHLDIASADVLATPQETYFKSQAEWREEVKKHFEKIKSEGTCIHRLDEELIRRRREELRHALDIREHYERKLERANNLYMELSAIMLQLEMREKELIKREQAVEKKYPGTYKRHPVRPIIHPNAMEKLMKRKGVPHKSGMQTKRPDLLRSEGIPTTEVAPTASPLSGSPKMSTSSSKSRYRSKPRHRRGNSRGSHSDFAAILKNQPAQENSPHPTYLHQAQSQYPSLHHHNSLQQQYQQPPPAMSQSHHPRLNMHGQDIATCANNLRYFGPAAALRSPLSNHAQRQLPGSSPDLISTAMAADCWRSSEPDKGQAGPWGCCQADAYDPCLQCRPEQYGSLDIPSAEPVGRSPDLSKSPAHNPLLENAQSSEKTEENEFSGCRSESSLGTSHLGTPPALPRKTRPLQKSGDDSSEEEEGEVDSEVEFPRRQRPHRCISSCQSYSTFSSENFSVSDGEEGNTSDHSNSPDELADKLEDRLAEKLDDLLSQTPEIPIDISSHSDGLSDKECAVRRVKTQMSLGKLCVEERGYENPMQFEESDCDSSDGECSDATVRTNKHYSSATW
Kind of data set: LZK degradation (doxycycline-induced LZK expression, immunoblot) in CAL33 cells. On the set-up: V5 (named only in the vector); expressed in transfected cells; host or cells: CAL33 HNSCC cells, lentiviral T-REx system, induced with doxycycline. To be noted: for LZK degradation / dox-induced LZK expression: CAL33, doxycycline 48 hours, LZK PROTAC 24 hours, 0-10 μM; for dox-induced LZK expression at high concentrations: 24 hours. In kind it is cell-based. The text has this:
(§1) The ViraPower HiPerform T-REx Gateway Expression System (Invitrogen) was used to generate cells with tetracycline-inducible expression of LZK. In brief, wild-type (WT) or drug-resistant mutant (Q240S) LZK (cloned into pLenti6.3/TO/V5-DEST vector) and pLenti3.3/TR (for tetracycline repressor expression) were transfected into 293FT cells using Lipofectamine 2000 to generate lentiviral stock. Cell lines were generated by antibiotic selection (blasticidin [Gibco] and geneticin [Gibco]). Doxycycline (Sigma-Aldrich) was used at 1 μg/mL to induce LZK expression.
(§2) Generally, cells were plated in six-well or 35-mm plates for 24 hours, after which doxycycline was added or treatment with specific inhibitor was administered using […] for 48 hours. After appropriate treatment time, cells were washed with ice-cold phosphate-buffered saline without Ca and Mg (Quality Biological) and then lysed on ice with RIPA buffer (50 mM NaCl, 1.0% o IGEPAL® CA-630, 0.5% o sodium deoxycholate, 0.10% SDS, 50 mM Tris, pH 8.0) (Sigma-Aldrich) supplemented with protease inhibitor tablet (Sigma-Aldrich) and phosphatase inhibitor cocktails 2 and 3 (Sigma-Aldrich) followed by centrifugation at 15,000 rpm for 10 minutes at 4° C. Protein concentrations were determined from the cell lysate by using 660 nm Protein Assay Reagent (Pierce). Cell extracts were denatured, subjected to SDS-PAGE, transferred to PVDF membranes (Bio-Rad) and blocked for 2 hours using 5 bovine serum albumin (BSA) in phosphate-buffered saline and 0.10 Tween® 20 (PBS-T). The membranes were incubated with the specific antibodies overnight in […] at 4° C. followed by a 1 hour incubation with the appropriate horseradish peroxidase-conjugated secondary antibodies and signal was detected by chemiluminescence (Thermo Fisher).
In general terms: In western blotting, separated proteins are transferred to a membrane and probed.

The target of data set [3] is T1, LZK. The data set is described as follows: LZK inhibition in cells monitored by downstream JNK phosphorylation (dox-induced LZK). In kind it is cell-based. On the set-up: V5 (named only in the vector); expressed in transfected cells; host or cells: CAL33 HNSCC cells, lentiviral T-REx system, induced with doxycycline.
Description: as §1, §2
A PathScan® Phospho-SAPK/JNK (Thr183/Tyr185) Sandwich ELISA Assay (Cell Signaling Technology) was used for ELISA assays following the manufacturer's protocol. In general, 500,000 cells were plated and treated with doxycycline the following day where appropriate and incubated at 37° C. for 48 hours. Cells were treated with the drug compound or control in 5% FBS media for 1 hour. After appropriate treatment time, cells were lysed on ice with 1x Cell Lysis Buffer (Cell Signaling Technology) supplemented with phosphatase and protease inhibitors (Sigma). Each diluted cell lysate was added to Phospho-SAPK/JNK (Thr183/Tyr185)Rabbit mAb Coated microwells in triplicate and incubated overnight at 4° C. Samples were treated with the following antibodies and incubated at 37° C. for 1 hour and 30 minutes, respectively: Detection Antibody and HRP-Linked secondary antibody. Samples were washed between treatments using 1× Wash Buffer according to the manufacturer's protocol. TMB substrate was added to each well and incubated at 37° C. for 10 minutes. Following this, STOPsolution was added to each well and absorbance was measured at 450 nm using iMark™ Microplate Absorbance Reader (Bio-Rad). Graphs display relative phospho-JNK levels.

Data set [4] in a line: Kinetic solubility assay. In kind it is physicochemical. The settings on record: kinetic from dmso stock.
Data set [5] can be described thus: Rat liver microsomal (RLM) stability assay. The class given is in vitro ADME. To be noted: rat liver microsomes; read-out: RLM Stability (t1/2). (In general: Liver microsomes are a subcellular fraction often used to study metabolism.)

The structures appear in SMILES notation. ≈ marks a conversion by molar mass, not a printed value. Like-named read-outs stand apart in the source and are kept apart here.

Regarding `Cc1ncsc1-c1ccc([C@H](C)NC(=O)[C@@H]2C[C@@H](O)CN2C(=O)[C@@H](NC(=O)[C@H]2CC[C@@H]2C(=O)N2CCC(c3cc(Nc4cc(C#N)ccn4)nc(N4CCC(F)(F)C4)c3)CC2)C(C)(C)C)cc1` (single isomer, unassigned) [Compound 25], the “Ratio of mean permeability (×10^4 cm/s) related to low permeability control (atenolol)” value (shortened to “Ratio of mean permeability”) in data set [1] is 0.43. Still for that read-out and setting: the same measure for `Cc1ncsc1-c1ccc([C@H](C)NC(=O)[C@@H]2C[C@@H](O)CN2C(=O)[C@@H](NC(=O)[C@H]2CC[C@H]2C(=O)N2CCC(c3cc(Nc4cc(C#N)ccn4)nc(N4CCC(F)(F)C4)c3)CC2)C(C)(C)C)cc1` (single isomer, unassigned) [Compound 26]: 1.47. Turning to `Cc1ncsc1-c1ccc([C@H](C)NC(=O)[C@@H]2C[C@@H](O)CN2C(=O)[C@@H](NC(=O)CCCCCCC(=O)N2CCC(c3cc(Nc4cc(C(F)(F)F)ccn4)nc(N4CCC(F)(F)C4)c3)CC2)C(C)(C)C)cc1` [Compound 4], in data set [2], the “LZK degradation / dox-induced LZK expression” value is given as “ineffective at degrading LZK” and the “dox-induced LZK expression at high concentrations” value is “slightly decreased dox-induced LZK expression”. As to `O=C(CCCCCCC(=O)N1CCC(c2cc(Nc3cc(C(F)(F)F)ccn3)nc(N3CCC(F)(F)C3)c2)CC1)NCCCCNC(=O)CNc1cccc2c1C(=O)N(C1CCC(=O)NC1=O)C2=O` (stereo not shown) [Compound 5], the “JNK signaling inhibition by targeted degraders” value in data set [3] (CAL33 cells induced with doxycycline, 0-10 μM) is “inhibited LZK”. Also, in data set [2], the “LZK degradation / dox-induced LZK expression” value is “ineffective at degrading LZK” and the “dox-induced LZK expression at high concentrations” value was “slightly decreased dox-induced LZK expression”.

Consider `Cc1ncsc1-c1ccc([C@H](C)NC(=O)[C@@H]2C[C@@H](O)CN2C(=O)[C@@H](NC(=O)c2cncc(C(=O)N3CCC(c4cc(Nc5cc(C#N)ccn5)nc(N5CCC(F)(F)C5)c4)CC3)c2)C(C)(C)C)cc1` [Compound 7], for which the solubility in data set [4] was determined as 26 µg/mL (≈ 27.1 µM). Also, in data set [1] (pH 7.4), the Papp was less than 1 ×10⁻⁶ cm/s. Besides, the half-life in data set [5] was greater than 30 min. With `Cc1ncsc1-c1ccc([C@H](C)NC(=O)[C@@H]2C[C@@H](O)CN2C(=O)[C@@H](NCc2cccc(CN3CCC(c4cc(Nc5cc(C#N)ccn5)nc(N5CCC(F)(F)C5)c4)CC3)n2)C(C)(C)C)cc1` [Compound 9], the “Ratio of mean permeability” value in data set [1] is −0.46.

With `Cc1ncsc1-c1ccc([C@H](C)NC(=O)[C@@H]2C[C@@H](O)CN2C(=O)[C@@H](NC(=O)CCCCC(=O)N2CCC(c3cc(Nc4cc(C#N)ccn4)nc(N4CCC(F)(F)C4)c3)CC2)C(C)(C)C)cc1` [Compound 12], the “Ratio of mean permeability” value in data set [1] is 0.61. The same measure, in the same setting: under `Cc1ncsc1-c1ccc([C@H](C)NC(=O)[C@@H]2C[C@@H](O)CN2C(=O)[C@@H](NCc2ccc(C(=O)N3CCC(c4cc(Nc5cc(C#N)ccn5)nc(N5CCC(F)(F)C5)c4)CC3)cc2)C(C)(C)C)cc1` [Compound 13] stands 1.31. Turning to `Cc1ncsc1-c1ccc([C@H](C)NC(=O)[C@@H]2C[C@@H](O)CN2C(=O)[C@@H](NC(=O)CCC(=O)N2CCC(c3cc(Nc4cc(C#N)ccn4)nc(N4CCC(F)(F)C4)c3)CC2)C(C)(C)C)cc1` [Compound 14], the “Ratio of mean permeability” value in data set [1] is on record as −0.51. Turning to `Cc1ncsc1-c1ccc([C@H](C)NC(=O)[C@@H]2C[C@@H](O)CN2C(=O)[C@@H](NC(=O)c2ccc(C(=O)N3CCC(c4cc(Nc5cc(C#N)ccn5)nc(N5CCC(F)(F)C5)c4)CC3)cc2)C(C)(C)C)cc1` [Compound 15], the “Ratio of mean permeability” value in data set [1] was −0.14. `Cc1ncsc1-c1ccc([C@H](C)NC(=O)[C@@H]2C[C@@H](O)CN2C(=O)[C@@H](NC(=O)c2cc(C(=O)N3CCC(c4cc(Nc5cc(C#N)ccn5)nc(N5CCC(F)(F)C5)c4)CC3)ncn2)C(C)(C)C)cc1` [Compound 20]: in data set [1], the “Ratio of mean permeability” value is on record as −0.01. Take `Cc1ncsc1-c1ccc([C@H](C)NC(=O)[C@@H]2C[C@@H](O)CN2C(=O)[C@@H](NC(=O)c2ccc(C(=O)N3CCC(c4cc(Nc5cc(C#N)ccn5)nc(N5CCC(F)(F)C5)c4)CC3)nn2)C(C)(C)C)cc1` [Compound 21]: the “Ratio of mean permeability” value in data set [1] is reported as −0.11.

Regarding `Cc1ncsc1-c1ccc([C@H](C)NC(=O)[C@@H]2C[C@@H](O)CN2C(=O)[C@@H](NC(=O)[C@H]2C[C@H](C(=O)N3CCC(c4cc(Nc5cc(C#N)ccn5)nc(N5CCC(F)(F)C5)c4)CC3)C2)C(C)(C)C)cc1` [Compound 24], the “Ratio of mean permeability” value in data set [1] was 6.74. The same measure, in the same setting: the same measure for `Cc1ncsc1-c1ccc([C@H](C)NC(=O)[C@@H]2C[C@@H](O)CN2C(=O)[C@@H](NC(=O)N2CCC(c3cc(Nc4cc(C#N)ccn4)nc(N4CCC(F)(F)C4)c3)CC2)C(C)(C)C)cc1` [Compound 27]: 0.01. Same read-out and setting: the same measure for `Cc1ncsc1-c1ccc([C@H](C)NC(=O)[C@@H]2C[C@@H](O)CN2C(=O)[C@@H](NCC(=O)N2CCC(c3cc(Nc4cc(C#N)ccn4)nc(N4CCC(F)(F)C4)c3)CC2)C(C)(C)C)cc1` [Compound 28]: −1.86; for `Cc1ncsc1-c1ccc([C@H](C)NC(=O)[C@@H]2C[C@@H](O)CN2C(=O)[C@@H](NC(=O)[C@H](CCC(=O)N2CCC(c3cc(Nc4cc(C#N)ccn4)nc(N4CCC(F)(F)C4)c3)CC2)NC(=O)C(N)CCCNC(=N)N)C(C)(C)C)cc1` (stereo partly shown) [Compound 29]: 6.74. With `C[C@@H](C(=O)N[C@H](C(=O)N1C[C@@H](NC(=O)CCCCCCC(=O)N2CCC(c3cc(Nc4cc(C#N)ccn4)nc(N4CCC(F)(F)C4)c3)CC2)C[C@H]1C(=O)N[C@@H]1CCCc2ccccc21)C1CCCCC1)N(C)C(=O)OC(C)(C)C` [Compound 30], the “Ratio of mean permeability” value in data set [1] is 0.05. Further, the Papp in data set [1] (Table 7, read-out: Mean permeability) was 0.0001 ×10⁻⁶ cm/s. In addition, the “LZK degradation / dox-induced LZK expression” value in data set [2] is “did not degrade LZK”. As for `FC1(F)CCN(c2cc(C3CCNCC3)cc(Nc3cc(C(F)(F)F)ccn3)n2)C1` [LZK inhibitor 1], the “LZK inhibition in cells, measured by inhibition of downstream JNK pathway activation” value in data set [3] (dox-inducible LZK in CAL33 cells) was “poor LZK inhibitor in cells”.
